Experimental data as given in ChEMBL document CHEMBL1135216, “New 2-(1-adamantylcarbonyl)pyridine and 1-acetyladamantane thiosemicarbazones-thiocarbonohydrazones: cell growth inhibitory, antiviral and antimicrobial activity evaluation” (Bioorg Med Chem Lett, 2002).
≈ marks a conversion by molar mass, not a printed value.

Key:
E6SM [1] = assay: Tested for antiviral activity against VSV-virus in human embryonic skin muscle fibroblasts; type: functional; conditions: Muscle tissue
E6SM [2] = assay: Tested for antiviral activity against herpes simplex virus type 1(KOS) in E6SM cell line(human embryonic skin-muscle fibroblasts); type: functional
HEL [3] = assay: Tested for antiviral activity against thymidine kinase deficient Varicella zoster virus in human embryonic lung fibroblasts
E6SM [4] = assay: Tested for cytotoxic activity in human embryonic skin muscle fibroblast (E6SM); type: functional; conditions: Muscle tissue
HEL [5] = assay: Tested for cytotoxic activity in human embryonic lung fibroblast (HEL); type: functional
E6SM [6] = assay: Tested for antiviral activity against thymidine kinase-deficient (TK-HSV-2G) virus in E6SM cell line(human embryonic skin-muscle fibroblasts); type: functional
E6SM [7] = assay: The compound was tested for antiviral activity against thymidine kinase-deficient (TK-HSV-1)virus in E6SM cell line(human embryonic skin-muscle fibroblasts); type: functional
E6SM [8] = assay: Tested for antiviral activity against vaccinia virus in human embryonic skin muscle fibroblast; type: functional; conditions: Muscle tissue
HEL [9] = assay: Tested for antiviral activity against thymidine kinase wild type Varicella zoster virus in human embryonic lung fibroblast; type: functional
Vero [10] = assay: Tested for cytotoxic activity in African green monkey kidney cells (Vero); type: functional; conditions: Chlorocebus sabaeus
Vero [11] = assay: Tested for antiviral activity against Reo-1 virus in African green monkey kidney cell (Vero); type: functional; conditions: Chlorocebus sabaeus
Staphylococcus hominis [12] = assay: Tested for the antimicrobial activity minimum inhibitory concentration) against Staphylococcus hominis; type: functional
Vero [13] = assay: Tested for antiviral activity against coxsackie B-4 virus in African green monkey kidney cell (Vero); type: functional; conditions: Chlorocebus sabaeus
Vero [14] = assay: Tested for antiviral activity against Sindbis virus in African green monkey kidney cell (Vero); type: functional; conditions: Chlorocebus sabaeus
Vero [15] = assay: Tested for antiviral activity against parainfluenza virus in african green monkey kidney cell (Vero); type: functional; conditions: Chlorocebus sabaeus
Escherichia coli [16] = assay: Tested for the antimicrobial activity minimum inhibitory concentration) against Escherichia coli; type: functional
HeLa [17] = assay: Tested for cytotoxic activity in human epithelial cell line (HeLa); type: functional
HeLa [18] = assay: The compound was tested for antiviral activity against VSV-virus in human epithelial cells; type: functional
Klebsiella pneumoniae [19] = assay: Tested for the antimicrobial activity minimum inhibitory concentration) against Klebsiella pneumoniae; type: functional
Vero [20] = assay: Tested for antiviral activity against Punta toro virus in African green monkey kidney cell (Vero); type: functional; conditions: Chlorocebus sabaeus
HeLa [21] = assay: Tested for antiviral activity against coxsackie-B4 virus in human epithelial cell line; type: functional
Staphylococcus hominis [22] = assay: Tested for the antimicrobial activity as minimum inhibitory concentration against Staphylococcus hominis ATCC 27844; type: functional
Escherichia coli [23] = assay: Tested for the antimicrobial activity as minimum inhibitory concentration against Escherichia coli ATCC 25922; type: functional
Klebsiella pneumoniae [24] = assay: Tested for the antimicrobial activity as minimum inhibitory concentration against Klebsiella pneumoniae ATCC 13883; type: functional
[25] = system: Staphylococcus epidermidis; assay: Tested for the antimicrobial activity as minimum inhibitory concentration against Staphylococcus epidermidis ATCC 12228; type: functional
Staphylococcus aureus = assay: Tested for the antimicrobial activity as minimum inhibitory concentration against Staphylococcus aureus ATCC 6538; type: functional
MT4 [26] = assay: The compound was tested for effective concentration required to protect MT-4 cells against the cytopathicity of HIV-1(IIIB); type: functional, cell-based; conditions: Homo sapiens
MT4 [27] = assay: The compound was tested for cytotoxic concentration required to reduce the viability of MT-4 cells; type: functional; conditions: Homo sapiens
MT4 [28] = assay: The compound was tested for effective concentration required to protect MT-4 cells against the cytopathicity of HIV-2(ROD); type: functional, cell-based; conditions: Homo sapiens

Work on `Nc1nc2c(ncn2COCCO)c(=O)[nH]1` [ACYCLOVIR] yielded an MIC (E6SM [1]) of 48 µg/mL (≈ 213 µM), an MIC (E6SM [2]) of 0.08 µg/mL (≈ 0.355 µM) and an MIC (HEL [3]) of 12.3 µg/mL (≈ 54.6 µM). For the same compound, the MCC (E6SM [4]) was > 400 µg/mL, the MCC (HEL [5]) was > 50 µg/mL and the MIC (E6SM [6]) was 0.08 µg/mL (≈ 0.355 µM). For the same compound, the MIC (E6SM [7]) was 48 µg/mL (≈ 213 µM), the MIC (E6SM [8]) was > 400 µg/mL and the MIC (HEL [9]) was 1.1 µg/mL (≈ 4.88 µM).
With `NC(=O)c1ncn([C@@H]2O[C@H](CO)[C@@H](O)[C@H]2O)n1` [RIBAVIRIN] the MIC (E6SM [1]) was 400 µg/mL (≈ 1640 µM), the MCC (Vero [10]) was > 400 µg/mL and the MIC (Vero [11]) was 80 µg/mL (≈ 328 µM). The MCC (E6SM [4]) was > 400 µg/mL, the MIC (Staphylococcus hominis [12]) was > 400 µg/mL and the MIC (Vero [13]) was 240 µg/mL (≈ 983 µM). For the same compound, the MIC (Vero [14]) was 80 µg/mL (≈ 328 µM), the MCC (Vero [15]) was 48 µg/mL and the MIC (Escherichia coli [16]) was > 400 µg/mL. The MCC (HeLa [17]) was > 400 µg/mL, the MIC (HeLa [18]) was 240 µg/mL (≈ 983 µM) and the MIC (Klebsiella pneumoniae [19]) was > 400 µg/mL. For the same compound, the MIC (Vero [20]) was 16 µg/mL (≈ 65.5 µM), the MIC (HeLa [21]) was 48 µg/mL (≈ 197 µM) and the MIC (E6SM [8]) was 240 µg/mL (≈ 983 µM).
`CN[C@@H]1[C@H](O[C@H]2[C@H](O[C@H]3[C@H](O)[C@@H](O)[C@H](N=C(N)N)[C@@H](O)[C@@H]3N=C(N)N)O[C@@H](C)[C@]2(O)C=O)O[C@@H](CO)[C@H](O)[C@H]1O` [STREPTOMYCIN] gave an MIC (Staphylococcus hominis [22]) of 2.1 µg/mL (≈ 3.61 µM), an MIC (Escherichia coli [23]) of 0.6 µg/mL (≈ 1.03 µM) and an MIC (Klebsiella pneumoniae [24]) of 0.6 µg/mL (≈ 1.03 µM). It also gave an MIC [25] of 2.1 µg/mL (≈ 3.61 µM) and an MIC (Staphylococcus aureus) of 2.1 µg/mL (≈ 3.61 µM).
For `Cc1cn([C@H]2C[C@H](N=[N+]=[N-])[C@@H](CO)O2)c(=O)[nH]c1=O` [ZIDOVUDINE], the EC50 (MT4 [26]) was 6.4 nM, the CC50 (MT4 [27]) was > 500000 nM and the EC50 (MT4 [28]) was 6 nM.
